Experimental data from ChEMBL document CHEMBL1909046, “DrugMatrix in vitro pharmacology data”.

What was measured:
[1] = target: Acetylcholinesterase (Homo sapiens, UniProt P22303); test: DRUGMATRIX: Acetylcholinesterase enzyme inhibition (substrate: acetylthiocholine); type: cell-based, HEK293; conditions: hek293; Not Active = under 50% inhibition at 10 µM
[2] = target: Prostaglandin G/H synthase 1 (Homo sapiens, UniProt P23219); test: biochemical; type: tissue-based, Platelet; conditions: platelet;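 note: inhibition of COX-1 enzyme activity, with arachidonic acid supplied as substrate; in other assays of this panel Not Active means under 50% inhibition at 10 µM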
Chain of Prostaglandin G/H synthase 1 (P23219 whole entry): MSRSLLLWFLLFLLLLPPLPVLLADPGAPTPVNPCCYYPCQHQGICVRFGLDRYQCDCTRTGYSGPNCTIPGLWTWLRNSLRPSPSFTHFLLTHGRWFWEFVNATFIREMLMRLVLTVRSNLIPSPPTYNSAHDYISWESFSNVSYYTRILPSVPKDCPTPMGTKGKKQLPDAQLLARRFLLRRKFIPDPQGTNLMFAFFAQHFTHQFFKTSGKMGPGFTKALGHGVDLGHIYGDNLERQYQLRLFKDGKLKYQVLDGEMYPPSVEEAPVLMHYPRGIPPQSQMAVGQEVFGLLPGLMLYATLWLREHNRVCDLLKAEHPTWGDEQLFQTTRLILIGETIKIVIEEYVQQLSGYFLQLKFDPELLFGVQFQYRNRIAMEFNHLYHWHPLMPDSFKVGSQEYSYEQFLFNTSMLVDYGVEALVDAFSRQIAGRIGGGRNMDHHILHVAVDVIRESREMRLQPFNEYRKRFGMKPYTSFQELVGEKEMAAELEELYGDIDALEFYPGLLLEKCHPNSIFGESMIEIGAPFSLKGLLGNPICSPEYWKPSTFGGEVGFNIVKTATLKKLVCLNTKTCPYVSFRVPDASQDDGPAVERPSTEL

[3] = DRUGMATRIX: Nicotinic Acetylcholine radioligand binding (ligand: [125I] Epibatidine); type: cell membranes, Membrane; conditions: imr-32; Not Active = under 50% inhibition at 10 µM
[4] = target: T1, C-C chemokine receptor type 4 (Homo sapiens, UniProt P51679); type: cell membranes, Chem-1, Membrane; note: in other assays of this panel Not Active means under 50% inhibition at 10 µM
T1 sequence (P51679 whole entry): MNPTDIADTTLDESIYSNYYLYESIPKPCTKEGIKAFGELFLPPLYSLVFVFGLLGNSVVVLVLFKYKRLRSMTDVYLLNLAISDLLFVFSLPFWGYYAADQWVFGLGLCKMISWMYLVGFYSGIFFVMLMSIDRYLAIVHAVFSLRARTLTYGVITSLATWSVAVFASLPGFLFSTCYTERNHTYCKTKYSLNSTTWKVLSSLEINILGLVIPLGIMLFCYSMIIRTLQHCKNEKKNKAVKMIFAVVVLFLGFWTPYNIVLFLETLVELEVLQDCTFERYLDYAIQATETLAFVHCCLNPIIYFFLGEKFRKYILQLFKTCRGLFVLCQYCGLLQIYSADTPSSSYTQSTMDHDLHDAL

[5] = target: T2, Substance-K receptor (Homo sapiens, UniProt P21452); type: cell membranes, CHO, Membrane; conditions: cho; note: in other assays of this panel Not Active means under 50% inhibition at 10 µM
T2 sequence (P21452 whole entry): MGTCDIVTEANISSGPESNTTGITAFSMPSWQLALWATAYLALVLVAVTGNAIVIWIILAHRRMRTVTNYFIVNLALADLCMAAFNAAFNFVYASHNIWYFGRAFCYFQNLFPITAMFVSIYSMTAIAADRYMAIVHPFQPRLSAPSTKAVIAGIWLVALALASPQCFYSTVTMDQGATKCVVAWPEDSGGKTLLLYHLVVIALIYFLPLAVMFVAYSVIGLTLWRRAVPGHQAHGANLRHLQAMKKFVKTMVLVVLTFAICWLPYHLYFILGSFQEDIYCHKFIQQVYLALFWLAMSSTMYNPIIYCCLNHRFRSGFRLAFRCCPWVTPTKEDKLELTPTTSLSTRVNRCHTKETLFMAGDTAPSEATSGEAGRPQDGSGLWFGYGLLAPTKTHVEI

[6] = target: T3, Neuropeptide Y receptor type 1 (Homo sapiens, UniProt P25929); type: cell membranes, Membrane; conditions: sk-n-mc; note: in other assays of this panel Not Active means under 50% inhibition at 10 µM
T3 sequence (P25929 whole entry): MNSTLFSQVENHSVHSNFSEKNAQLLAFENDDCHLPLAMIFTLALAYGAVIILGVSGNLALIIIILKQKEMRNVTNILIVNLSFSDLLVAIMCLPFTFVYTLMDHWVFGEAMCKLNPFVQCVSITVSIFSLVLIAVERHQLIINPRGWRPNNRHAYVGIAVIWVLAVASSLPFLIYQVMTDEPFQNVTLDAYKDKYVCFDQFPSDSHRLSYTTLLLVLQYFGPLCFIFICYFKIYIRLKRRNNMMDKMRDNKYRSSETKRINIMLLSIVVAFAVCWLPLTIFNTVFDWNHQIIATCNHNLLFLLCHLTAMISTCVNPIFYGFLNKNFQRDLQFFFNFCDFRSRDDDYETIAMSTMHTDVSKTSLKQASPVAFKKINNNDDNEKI

[7] = DRUGMATRIX: Glutamate, Kainate radioligand binding (ligand: [3H] Kainic acid); type: cell membranes, Rattus norvegicus, Wistar, Brain, Membrane; conditions: Not Active = under 50% inhibition at 10 µM

Chain of Acetylcholinesterase (P22303 whole entry): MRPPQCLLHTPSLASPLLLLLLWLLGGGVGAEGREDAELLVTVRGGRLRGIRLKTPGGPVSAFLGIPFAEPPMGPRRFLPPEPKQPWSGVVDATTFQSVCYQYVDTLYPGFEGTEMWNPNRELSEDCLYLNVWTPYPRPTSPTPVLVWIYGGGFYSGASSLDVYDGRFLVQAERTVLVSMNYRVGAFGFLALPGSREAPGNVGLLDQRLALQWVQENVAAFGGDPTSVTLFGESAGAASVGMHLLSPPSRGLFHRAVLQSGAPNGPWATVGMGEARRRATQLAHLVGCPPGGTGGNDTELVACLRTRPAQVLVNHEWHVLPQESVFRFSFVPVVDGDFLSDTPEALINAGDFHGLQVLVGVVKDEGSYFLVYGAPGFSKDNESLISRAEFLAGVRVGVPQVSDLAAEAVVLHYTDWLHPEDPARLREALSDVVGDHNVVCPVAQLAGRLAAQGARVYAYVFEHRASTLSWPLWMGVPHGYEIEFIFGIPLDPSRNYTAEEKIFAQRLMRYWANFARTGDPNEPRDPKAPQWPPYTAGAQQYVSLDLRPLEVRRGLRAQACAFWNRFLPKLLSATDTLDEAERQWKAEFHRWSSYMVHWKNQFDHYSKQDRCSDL

Structure (SMILES) | IC50 [1] | IC50 [2] | IC50 [3] | Ki [3] | IC50 ([4]; read-out: IC50) [µM] | Ki ([4]; read-out: Ki) [µM] | IC50 [5] | IC50 [6] | IC50 [7] | Ki [7] | IC50 ([4]; chem-1)
CCN(CC)C(=S)SSC(=S)N(CC)CC | Not Active | Not Active | Not Active | Not Active | 8.4 | 4.4 | Not Active | Not Active | Not Active | Not Active | 
O=[As][O-].[Na+] [SODIUM ARSENITE] | Not Active | Not Active | Not Active | Not Active |  |  | Not Active | Not Active | Not Active | Not Active | Not Active
CCN(CC)N=O [N-NITROSODIETHYLAMINE] | Not Active | Not Active | Not Active | Not Active |  |  | Not Active | Not Active | Not Active | Not Active | Not Active
Nc1nc(N)c2nc(-c3ccccc3)c(N)nc2n1 | Not Active | Not Active | Not Active | Not Active |  |  | Not Active | Not Active | Not Active | Not Active | Not Active
CCN(CC)CCNC(=O)c1cc(Cl)c(N)cc1OC [METOCLOPRAMIDE] | Not Active | Not Active | Not Active | Not Active |  |  | Not Active | Not Active | Not Active | Not Active | Not Active
Cc1cc2c(s1)Nc1ccccc1N=C2N1CCN(C)CC1 [OLANZAPINE] | Not Active | Not Active |  |  |  |  | Not Active | Not Active |  |  | Not Active
Cc1nnc(NS(=O)(=O)c2ccc(N)cc2)s1 [SULFAMETHIZOLE] | Not Active | Not Active | Not Active | Not Active |  |  | Not Active | Not Active | Not Active | Not Active | Not Active
CC#C[C@]1(O)CC[C@H]2[C@@H]3CCC4=CC(=O)CCC4=C3[C@@H](c3ccc(N(C)C)cc3)C[C@@]21C [MIFEPRISTONE] | Not Active | Not Active | Not Active | Not Active |  |  | Not Active | Not Active | Not Active | Not Active | Not Active
CS(=O)(=O)c1ccc(C2=C(c3ccccc3)C(=O)OC2)cc1 [ROFECOXIB] | Not Active |  | Not Active | Not Active |  |  | Not Active | Not Active | Not Active | Not Active | Not Active
CC1(C)[C@H](C(=O)O)N2C(=O)C[C@H]2S1(=O)=O [SULBACTAM] | Not Active | Not Active | Not Active | Not Active |  |  | Not Active | Not Active | Not Active | Not Active | Not Active
CO[C@@H]1[C@@H](OC)[C@H](C)[C@@](O)(CC(=O)O)O[C@H]1[C@H](C)[C@H]1O[C@@]2(CC[C@@](C)([C@H]3CC[C@@](C)([C@@H]4O[C@@H]([C@H]5O[C@](C)(O)[C@H](C)C[C@@H]5C)C[C@@H]4O[C@@H]4C[C@H](OC)[C@@H](OC)[C@H](C)O4)O3)O2)C[C@H](O)[C@H]1C.N [MADURAMICIN] | Not Active | Not Active | Not Active | Not Active |  |  | Not Active | Not Active | Not Active | Not Active | Not Active
CNCCCC12CCC(c3ccccc31)c1ccccc12 [MAPROTILINE] | Not Active | Not Active |  |  |  |  | Not Active | Not Active |  |  | Not Active
CN(C)CCC=C1c2ccccc2COc2ccccc21 [DOXEPIN] | Not Active | Not Active |  |  |  |  | Not Active | Not Active |  |  | Not Active
